The subject of one assay is NCI-H1299 cells. Nature of the assay: Induction of polyploidy in H1299. The note with it: NCI-H1299, 48 hours; for EC15: Homo sapiens, read-out: EC15 (concentration of inhibitor necessary to induce polyploidy in 15% of cells). In kind it is cell-based, Human. In outline:
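NCI-H1299 cells in RPMI 1640/10% FCS were treated with inhibitor concentrations in duplicate for 48 h at 37 C, then formalin-fixed and Hoechst-stained. Nuclear area was measured by high-content imaging, with polyploid (≥4N) defined as >750 μ^2. EC15 was derived by least-squares fit of log dose-response.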

The target in another assay is KDR (Homo sapiens, UniProt P35968). Nature of the assay: KDR HTRF in vitro kinase assay. Format: biochemical. The arrangement: purified enzyme (His6-KDR 789-1354, MW 63 kD); His6 (N). The following applies: 1 mM ATP; read-out: KDR enzyme inhibition data (Ki). Summed up: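 His6-KDR 789-1354 (7 ng/well) with 0.5 μM biotinylated peptide substrate and 1 mM ATP in HEPES pH 7.1, MgCl2/MnCl2, 60 min at room temperature. EDTA-quenched, detected by streptavidin-XL-665 plus Eu-kryptate anti-phosphotyrosine HTRF after 3 h; IC50 from 620/665 nm ratio.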
In general terms: TR-FRET usually uses a lanthanide donor and a delayed reading to cut background.

Structures are written as SMILES.

As usually defined, the Ki is a measure of affinity in units of concentration, obtained from inhibition or displacement.

KDR, sequence (P35968 789-1354): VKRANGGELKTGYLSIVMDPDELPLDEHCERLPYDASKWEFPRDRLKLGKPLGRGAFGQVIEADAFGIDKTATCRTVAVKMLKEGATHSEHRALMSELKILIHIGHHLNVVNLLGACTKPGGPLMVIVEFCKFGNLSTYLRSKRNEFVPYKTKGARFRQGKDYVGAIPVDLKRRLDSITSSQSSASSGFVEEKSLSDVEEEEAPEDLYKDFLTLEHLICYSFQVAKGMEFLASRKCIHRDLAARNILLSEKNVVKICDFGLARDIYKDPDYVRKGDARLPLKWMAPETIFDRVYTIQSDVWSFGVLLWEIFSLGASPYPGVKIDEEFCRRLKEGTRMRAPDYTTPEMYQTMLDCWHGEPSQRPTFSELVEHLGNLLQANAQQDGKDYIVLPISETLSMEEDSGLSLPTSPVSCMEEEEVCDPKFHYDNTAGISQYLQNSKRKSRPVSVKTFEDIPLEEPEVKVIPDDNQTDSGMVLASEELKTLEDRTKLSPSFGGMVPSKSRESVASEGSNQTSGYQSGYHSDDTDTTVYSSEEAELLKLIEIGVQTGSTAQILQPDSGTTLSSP

With `C[C@@H](O)Cn1cc(Nc2ncc(Cl)c(N[C@@H]3[C@H]4CC[C@H](C4)[C@@H]3C(N)=O)n2)cn1` [Example 104, (1R,2S,3R,4S)-3-{[5-chloro-2-({1-[(2R)-2-hydroxypropyl]-1H-pyrazol-4-yl}amino)pyrimidin-4-yl]amino}bicyclo[2.2.1]heptane-2-carboxamide], in the assay on NCI-H1299 cells, the EC15 was less than 100 nM. Besides, the Ki at KDR was less than 100 nM.
`COc1ccc(Cn2cc(Nc3ncc(Cl)c(N[C@H]4[C@@H](C(N)=O)[C@@H]5C=C[C@H]4C5)n3)cn2)cc1F` [Example 192, (1S,2S,3R,4R)-3-[(5-chloro-2-{[1-(3-fluoro-4-methoxybenzyl)-1H-pyrazol-4-yl]amino}pyrimidin-4-yl)amino]bicyclo[2.2.1]hept-5-ene-2-carboxamide]: the EC15 in the assay on NCI-H1299 cells is less than 100 nM. In addition, the Ki at KDR is less than 100 nM.
Regarding `CS(=O)(=O)CCn1cc(Nc2ncc(Cl)c(N[C@H]3[C@@H](C(N)=O)[C@@H]4C=C[C@H]3C4)n2)cn1` [Example 119, (1S,2S,3R,4R)-3-{[5-chloro-2-({1-[2-(methylsulfonyl)ethyl]-1H-pyrazol-4-yl}amino)pyrimidin-4-yl]amino}bicyclo[2.2.1]hept-5-ene-2-carboxamide], the EC15 in the assay on NCI-H1299 cells is less than 100 nM. Further, the Ki at KDR is less than 100 nM.
Regarding `COCCOCCn1cc(Nc2ncc(Cl)c(N[C@H]3[C@@H](C(N)=O)[C@@H]4C=C[C@H]3C4)n2)cn1` [Example 100, (1S,2S,3R,4R)-3-{[5-chloro-2-({1-[2-(2-methoxyethoxy)ethyl]-1H-pyrazol-4-yl}amino)pyrimidin-4-yl]amino}bicyclo[2.2.1]hept-5-ene-2-carboxamide], the EC15 in the assay with NCI-H1299 cells is less than 100 nM. In addition, at KDR, the Ki is less than 100 nM.
Take `Cn1cc(Nc2ncc(C(F)(F)F)c(N[C@@H]3[C@@H]4CC[C@@H](C4)[C@@H]3C(N)=O)n2)cn1.Cn1cc(Nc2ncc(C(F)(F)F)c(N[C@H]3[C@H]4CC[C@H](C4)[C@H]3C(N)=O)n2)cn1` (mixture of isomers) [Example 20, (1S,2S,3R,4R)-3-{[2-[(1-methyl-1H-pyrazol-4-yl)amino]-5-(trifluoromethyl)pyrimidin-4-yl]amino}bicyclo[2.2.1]heptane-2-carboxamide and (1R,2R,3S,4S)-3-{[2-[(1-methyl-1H-pyrazol-4-yl)amino]-5-(trifluoromethyl)pyrimidin-4-yl]amino}bicyclo[2.2.1]heptane-2-carboxamide]: in the assay with NCI-H1299 cells, the “EC15 (concentration of inhibitor necessary to induce polyploidy in 15% of cells)” value is listed as “A (“A” represents an EC15 of less than 0.1 μM)”. For the same molecule, the Ki on KDR was less than 100 nM.
In the case of `Cc1c(Nc2ncc(Cl)c(N[C@H]3[C@@H](C(N)=O)[C@@H]4C=C[C@H]3C4)n2)cnn1C` [Example 169, (1S,2S,3R,4R)-3-({5-chloro-2-[(1,5-dimethyl-1H-pyrazol-4-yl)amino]pyrimidin-4-yl}amino)bicyclo[2.2.1]hept-5-ene-2-carboxamide], in the assay with NCI-H1299 cells, the EC15 is less than 100 nM. On KDR, the Ki was less than 100 nM.
`CCn1cc(Nc2ncc(Cl)c(N[C@@H]3[C@H](C(N)=O)[C@@H]4C=C[C@H]3C4)n2)cn1.CCn1cc(Nc2ncc(Cl)c(N[C@H]3[C@@H](C(N)=O)[C@H]4C=C[C@@H]3C4)n2)cn1` (mixture of isomers) [Example 121, (1S,2R,3S,4R)-3-({5-chloro-2-[(1-ethyl-1H-pyrazol-4-yl)amino]pyrimidin-4-yl}amino)bicyclo[2.2.1]hept-5-ene-2-carboxamide and (1R,2S,3R,4S)-3-({5-chloro-2-[(1-ethyl-1H-pyrazol-4-yl)amino]pyrimidin-4-yl}amino)bicyclo[2.2.1]hept-5-ene-2-carboxamide]: in the assay with NCI-H1299 cells, the “EC15 (concentration of inhibitor necessary to induce polyploidy in 15% of cells)” value is “A (“A” represents an EC15 of less than 0.1 μM)”. In addition, the Ki on KDR was less than 100 nM.
Turning to `CC(C)n1cc(Nc2ncc(Br)c(N[C@H]3[C@@H](C(N)=O)[C@@H]4C=C[C@H]3C4)n2)cn1` [Example 112, (1S,2S,3R,4R)-3-({5-bromo-2-[(1-isopropyl-1H-pyrazol-4-yl)amino]pyrimidin-4-yl}amino)bicyclo[2.2.1]hept-5-ene-2-carboxamide], in the assay with NCI-H1299 cells, the EC15 was less than 100 nM. The Ki at KDR is less than 100 nM.
`COCCOCCn1cc(Nc2ncc(Br)c(N[C@H]3[C@@H](C(N)=O)[C@@H]4C=C[C@H]3C4)n2)cn1` [Example 110, (1S,2S,3R,4R)-3-{[5-bromo-2-({1-[2-(2-methoxyethoxy)ethyl]-1H-pyrazol-4-yl}amino)pyrimidin-4-yl]amino}bicyclo[2.2.1]hept-5-ene-2-carboxamide]: the EC15 in the assay on NCI-H1299 cells is less than 100 nM. Besides, the inhibition constant (Ki) at KDR was less than 100 nM.
Regarding `CC(C)CCn1cc(Nc2ncc(Br)c(N[C@H]3[C@@H](C(N)=O)[C@@H]4C=C[C@H]3C4)n2)cn1` [Example 111, (1S,2S,3R,4R)-3-[(5-bromo-2-{[1-(3-methylbutyl)-1H-pyrazol-4-yl]amino}pyrimidin-4-yl)amino]bicyclo[2.2.1]hept-5-ene-2-carboxamide], the EC15 with NCI-H1299 cells was less than 100 nM. Besides, the Ki at KDR was less than 100 nM.
Take `CN(C)CC(=O)N1CCC(n2cc(Nc3ncc(Cl)c(N[C@H]4[C@@H](C(N)=O)[C@@H]5C=C[C@H]4C5)n3)cn2)CC1` [Example 89, (1S,2S,3R,4R)-3-{[5-chloro-2-({1-[1-(N,N-dimethylglycyl)piperidin-4-yl]-1H-pyrazol-4-yl}amino)pyrimidin-4-yl]amino}bicyclo[2.2.1]hept-5-ene-2-carboxamide]: in the assay on NCI-H1299 cells, the EC15 was less than 100 nM. The Ki at KDR was less than 100 nM.
As to `Cn1cc(Nc2ncc(C(F)(F)F)c(N[C@@H]3[C@H](C(N)=O)[C@H]4C=C[C@@H]3C4)n2)cn1.Cn1cc(Nc2ncc(C(F)(F)F)c(N[C@H]3[C@@H](C(N)=O)[C@@H]4C=C[C@H]3C4)n2)cn1` (mixture of isomers) [Example 10, (1S,2S,3R,4R)-3-{[2-[(1-methyl-1H-pyrazol-4-yl)amino]-5-(trifluoromethyl)pyrimidin-4-yl]amino}bicyclo[2.2.1]hept-5-ene-2-carboxamide and (1R,2R,3S,4S)-3-{[2-[(1-methyl-1H-pyrazol-4-yl)amino]-5-(trifluoromethyl)pyrimidin-4-yl]amino}bicyclo[2.2.1]hept-5-ene-2-carboxamide], the “EC15 (concentration of inhibitor necessary to induce polyploidy in 15% of cells)” value in the assay on NCI-H1299 cells was “A (“A” represents an EC15 of less than 0.1 μM)”. The Ki at KDR was less than 100 nM.
For the molecule `CCn1cc(Nc2ncc(C(F)(F)F)c(N[C@@H]3[C@H]4CC[C@H](C4)[C@@H]3C(N)=O)n2)cn1.CCn1cc(Nc2ncc(C(F)(F)F)c(N[C@H]3[C@@H]4CC[C@@H](C4)[C@H]3C(N)=O)n2)cn1` (mixture of isomers) [Example 24, (1R,2S,3R,4S)-3-{[2-[(1-ethyl-1H-pyrazol-4-yl)amino]-5-(trifluoromethyl)pyrimidin-4-yl]amino}bicyclo[2.2.1]heptane-2-carboxamide and (1S,2R,3S,4R)-3-{[2-[(1-ethyl-1H-pyrazol-4-yl)amino]-5-(trifluoromethyl)pyrimidin-4-yl]amino}bicyclo[2.2.1]heptane-2-carboxamide], the “EC15 (concentration of inhibitor necessary to induce polyploidy in 15% of cells)” value with NCI-H1299 cells was “A (“A” represents an EC15 of less than 0.1 μM)”. In addition, on KDR, the Ki is less than 100 nM.
For the molecule `CN1CCC(Cn2cc(Nc3ncc(Cl)c(N[C@H]4[C@@H](C(N)=O)[C@@H]5C=C[C@H]4C5)n3)cn2)CC1` [Example 97, (1S,2S,3R,4R)-3-{[5-chloro-2-({1-[(1-methylpiperidin-4-yl)methyl]-1H-pyrazol-4-yl}amino)pyrimidin-4-yl]amino}bicyclo[2.2.1]hept-5-ene-2-carboxamide], the EC15 with NCI-H1299 cells was in the range of 100 to 1000 nM. In addition, the Ki at KDR is less than 100 nM.
As to `CCn1cc(Nc2ncc(Cl)c(N[C@H]3[C@@H](C(N)=O)[C@@H]4C=C[C@H]3C4)n2)cn1` (racemic) [Example 30, (1S,2S,3R,4R)-3-({5-chloro-2-[(1-ethyl-1H-pyrazol-4-yl)amino]pyrimidin-4-yl}amino)bicyclo[2.2.1]hept-5-ene-2-carboxamide and (1R,2R,3S,4S)-3-({5-chloro-2-[(1-ethyl-1H-pyrazol-4-yl)amino]pyrimidin-4-yl}amino)bicyclo[2.2.1]hept-5-ene-2-carboxamide], the “EC15 (concentration of inhibitor necessary to induce polyploidy in 15% of cells)” value in the assay on NCI-H1299 cells is “A (“A” represents an EC15 of less than 0.1 μM)”. Further, the Ki at KDR was less than 100 nM.
`CCn1cc(Nc2ncc([N+](=O)[O-])c(N[C@H]3[C@@H](C(N)=O)[C@@H]4C=C[C@H]3C4)n2)cn1` [Example 140, (1S,2S,3R,4R)-3-({2-[(1-ethyl-1H-pyrazol-4-yl)amino]-5-nitropyrimidin-4-yl}amino)bicyclo[2.2.1]hept-5-ene-2-carboxamide]: in the assay with NCI-H1299 cells, the EC15 is less than 100 nM. Besides, the Ki on KDR is less than 100 nM.
With `CCn1cc(Nc2ncc(Cl)c(NC3C4CCC(O4)C3C(N)=O)n2)cn1` (racemic) [Example 142, (1S,2R,3S,4R)-3-({5-chloro-2-[(1-ethyl-1H-pyrazol-4-yl)amino]pyrimidin-4-yl}amino)-7-oxabicyclo[2.2.1]heptane-2-carboxamide and (1R,2S,3R,4S)-3-({5-chloro-2-[(1-ethyl-1H-pyrazol-4-yl)amino]pyrimidin-4-yl}amino)-7-oxabicyclo[2.2.1]heptane-2-carboxamide], the “EC15 (concentration of inhibitor necessary to induce polyploidy in 15% of cells)” value in the assay on NCI-H1299 cells was “B (“B” represents an EC15 of between 0.1 μM and 1 μM)”. Besides, the Ki at KDR was less than 100 nM.
Turning to `Cn1cc(Nc2ncc([N+](=O)[O-])c(N[C@H]3[C@@H](C(N)=O)[C@@H]4C=C[C@H]3C4)n2)cn1` [Example 139, (1S,2S,3R,4R)-3-({2-[(1-methyl-1H-pyrazol-4-yl)amino]-5-nitropyrimidin-4-yl}amino)bicyclo[2.2.1]hept-5-ene-2-carboxamide], the EC15 in the assay on NCI-H1299 cells was less than 100 nM. Also, at KDR, the Ki was less than 100 nM.

The record behind these values is patent US8426408B2, “Pyrimidine inhibitors of kinases” (AbbVie Inc., priority 2009, dated 2013).
